Measurements reported in ChEMBL document CHEMBL1201862, “PubChem BioAssay data set” (2004).
The source made the active and inactive calls.

Columns and labels:
[1] = target: Large T antigen (Simian virus 40, UniProt P03070); assay type: functional, Betapolyomavirus macacae;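 also: Confirmatory-stage PubChem screen for compounds that inhibit SV40 T antigen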
[2] = target: DNA dC->dU-editing enzyme APOBEC-3A (Homo sapiens, UniProt P31941); experiment: APOBEC3A DNA deaminase inhibitors, dose response, biochemical (AID 504722); assay type: functional
DNA dC->dU-editing enzyme APOBEC-3A, sequence (P31941 whole entry): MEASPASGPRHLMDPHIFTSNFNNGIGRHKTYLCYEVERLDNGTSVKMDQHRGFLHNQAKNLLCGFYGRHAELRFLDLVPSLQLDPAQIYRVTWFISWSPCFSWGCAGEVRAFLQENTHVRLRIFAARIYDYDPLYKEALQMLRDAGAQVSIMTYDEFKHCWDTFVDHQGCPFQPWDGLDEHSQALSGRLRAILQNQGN

[3] = target: T1, Leucine aminopeptidase (Plasmodium falciparum 3D7, UniProt Q8IL11); experiment: P. falciparum M17LAP inhibitors, primary screen, biochemical, fluorogenic H-Leu-NHMec substrate, 1536-well (AID 1619); assay type: functional
T1 sequence (Q8IL11 whole entry): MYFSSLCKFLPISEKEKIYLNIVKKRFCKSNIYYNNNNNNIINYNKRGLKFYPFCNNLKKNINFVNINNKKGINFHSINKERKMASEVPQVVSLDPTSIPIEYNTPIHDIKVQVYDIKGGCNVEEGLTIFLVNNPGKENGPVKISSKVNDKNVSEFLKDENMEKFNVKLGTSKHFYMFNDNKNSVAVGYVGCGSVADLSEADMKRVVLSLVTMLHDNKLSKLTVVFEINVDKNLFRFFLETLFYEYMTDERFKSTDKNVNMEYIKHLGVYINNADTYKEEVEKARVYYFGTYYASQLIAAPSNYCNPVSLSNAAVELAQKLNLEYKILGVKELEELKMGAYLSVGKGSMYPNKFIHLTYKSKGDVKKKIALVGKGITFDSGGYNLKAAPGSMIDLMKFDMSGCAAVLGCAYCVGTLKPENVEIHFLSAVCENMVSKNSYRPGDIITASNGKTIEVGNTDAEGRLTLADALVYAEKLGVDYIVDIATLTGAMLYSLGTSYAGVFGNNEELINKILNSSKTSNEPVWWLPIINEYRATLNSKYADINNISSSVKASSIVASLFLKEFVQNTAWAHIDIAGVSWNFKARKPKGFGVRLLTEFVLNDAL

[4] = target: DNA dC->dU-editing enzyme APOBEC-3G (Homo sapiens, UniProt Q9HC16); experiment: Dose Response confirmation of small molecule APOBEC3G DNA Deaminase Inhibitors via a fluorescence-based single-stranded DNA deaminase assay. [Related pubchem assays (depositor defined):AID493012, AID493028]; assay type: functional
DNA dC->dU-editing enzyme APOBEC-3G, sequence (Q9HC16 whole entry): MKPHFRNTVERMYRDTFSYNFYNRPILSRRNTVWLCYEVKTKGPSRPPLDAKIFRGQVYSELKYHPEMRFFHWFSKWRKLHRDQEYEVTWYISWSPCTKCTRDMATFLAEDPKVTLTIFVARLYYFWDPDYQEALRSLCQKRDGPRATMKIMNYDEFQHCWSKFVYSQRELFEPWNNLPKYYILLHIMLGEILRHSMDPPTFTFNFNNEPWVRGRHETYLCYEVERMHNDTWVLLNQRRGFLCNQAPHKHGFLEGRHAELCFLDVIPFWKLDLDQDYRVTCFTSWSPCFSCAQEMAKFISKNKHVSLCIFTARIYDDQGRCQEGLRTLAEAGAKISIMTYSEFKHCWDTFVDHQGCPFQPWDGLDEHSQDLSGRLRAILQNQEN

[5] = target: Heat shock protein HSP 90-alpha (Homo sapiens, UniProt P07900); assay type: functional, organism-based
[6] = Vero E6 cell cytotoxicity, dose response, cytotoxicity control for non-replicating M. tuberculosis project, secondary assay (AID 492998); assay type: functional, VeroE6; settings: Vero C1008
[7] = microbe, parasite or virus in culture; assay type: functional; settings: Mycobacterium tuberculosis
[8] = cells; assay type: functional
[9] = target: Genome polyprotein (dengue virus type 2, UniProt P29990); experiment: Dengue-2 NS5 methyltransferase inhibitors, primary screen, biochemical, confirmation dose response (AID 588689); assay type: functional
Genome polyprotein, sequence (P29990 2492-3391 limits assumed): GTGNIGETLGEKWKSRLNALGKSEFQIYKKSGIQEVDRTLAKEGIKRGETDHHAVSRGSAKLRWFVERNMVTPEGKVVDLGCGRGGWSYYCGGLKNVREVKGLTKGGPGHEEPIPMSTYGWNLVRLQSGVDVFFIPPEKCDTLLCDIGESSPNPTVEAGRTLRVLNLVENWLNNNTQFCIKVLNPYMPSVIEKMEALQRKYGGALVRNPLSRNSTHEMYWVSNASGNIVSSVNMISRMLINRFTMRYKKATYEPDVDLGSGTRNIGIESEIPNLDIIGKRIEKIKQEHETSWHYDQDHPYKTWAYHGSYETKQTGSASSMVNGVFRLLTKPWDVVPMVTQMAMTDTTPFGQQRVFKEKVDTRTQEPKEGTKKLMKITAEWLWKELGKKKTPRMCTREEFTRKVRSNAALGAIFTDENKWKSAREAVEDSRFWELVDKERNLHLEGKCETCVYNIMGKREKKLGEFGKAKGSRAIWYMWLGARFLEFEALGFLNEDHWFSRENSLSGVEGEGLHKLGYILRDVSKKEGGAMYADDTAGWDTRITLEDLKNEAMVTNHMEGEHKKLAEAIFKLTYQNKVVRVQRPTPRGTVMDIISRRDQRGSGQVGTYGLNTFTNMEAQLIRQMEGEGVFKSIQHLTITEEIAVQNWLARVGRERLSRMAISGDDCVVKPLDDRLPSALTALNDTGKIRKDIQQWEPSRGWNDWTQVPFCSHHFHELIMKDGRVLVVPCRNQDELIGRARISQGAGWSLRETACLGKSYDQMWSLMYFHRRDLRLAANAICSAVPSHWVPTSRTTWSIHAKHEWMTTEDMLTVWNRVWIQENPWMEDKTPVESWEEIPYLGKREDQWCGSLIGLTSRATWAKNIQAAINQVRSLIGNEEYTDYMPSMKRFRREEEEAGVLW

[10] = target: Beta-2 adrenergic receptor (Homo sapiens, UniProt P07550); experiment: beta2AR agonists driving receptor internalization, dose response, cell-based, FAP fluorogen, flow cytometry, cherry pick 1 (AID 588763); assay type: functional
Beta-2 adrenergic receptor, sequence (P07550 whole entry): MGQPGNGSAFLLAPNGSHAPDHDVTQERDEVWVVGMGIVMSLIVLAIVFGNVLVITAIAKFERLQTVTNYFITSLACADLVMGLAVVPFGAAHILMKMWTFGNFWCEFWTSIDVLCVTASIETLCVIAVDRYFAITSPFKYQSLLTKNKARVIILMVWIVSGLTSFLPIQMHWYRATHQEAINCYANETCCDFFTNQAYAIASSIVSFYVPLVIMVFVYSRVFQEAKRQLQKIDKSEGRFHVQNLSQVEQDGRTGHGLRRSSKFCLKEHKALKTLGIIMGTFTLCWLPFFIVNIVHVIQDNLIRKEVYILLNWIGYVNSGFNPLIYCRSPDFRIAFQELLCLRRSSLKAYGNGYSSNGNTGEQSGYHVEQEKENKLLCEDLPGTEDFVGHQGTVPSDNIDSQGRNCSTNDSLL

[11] = target: T2, Aminopeptidase N (Plasmodium falciparum FcB1/Columbia, UniProt O96935); experiment: P. falciparum M1AAP inhibitors, biochemical, fluorogenic H-Leu-NHMec substrate, 1536-well (AID 1445); parameters: species or system Plasmodium falciparum 3D7, 3D7
T2 sequence (O96935 whole entry): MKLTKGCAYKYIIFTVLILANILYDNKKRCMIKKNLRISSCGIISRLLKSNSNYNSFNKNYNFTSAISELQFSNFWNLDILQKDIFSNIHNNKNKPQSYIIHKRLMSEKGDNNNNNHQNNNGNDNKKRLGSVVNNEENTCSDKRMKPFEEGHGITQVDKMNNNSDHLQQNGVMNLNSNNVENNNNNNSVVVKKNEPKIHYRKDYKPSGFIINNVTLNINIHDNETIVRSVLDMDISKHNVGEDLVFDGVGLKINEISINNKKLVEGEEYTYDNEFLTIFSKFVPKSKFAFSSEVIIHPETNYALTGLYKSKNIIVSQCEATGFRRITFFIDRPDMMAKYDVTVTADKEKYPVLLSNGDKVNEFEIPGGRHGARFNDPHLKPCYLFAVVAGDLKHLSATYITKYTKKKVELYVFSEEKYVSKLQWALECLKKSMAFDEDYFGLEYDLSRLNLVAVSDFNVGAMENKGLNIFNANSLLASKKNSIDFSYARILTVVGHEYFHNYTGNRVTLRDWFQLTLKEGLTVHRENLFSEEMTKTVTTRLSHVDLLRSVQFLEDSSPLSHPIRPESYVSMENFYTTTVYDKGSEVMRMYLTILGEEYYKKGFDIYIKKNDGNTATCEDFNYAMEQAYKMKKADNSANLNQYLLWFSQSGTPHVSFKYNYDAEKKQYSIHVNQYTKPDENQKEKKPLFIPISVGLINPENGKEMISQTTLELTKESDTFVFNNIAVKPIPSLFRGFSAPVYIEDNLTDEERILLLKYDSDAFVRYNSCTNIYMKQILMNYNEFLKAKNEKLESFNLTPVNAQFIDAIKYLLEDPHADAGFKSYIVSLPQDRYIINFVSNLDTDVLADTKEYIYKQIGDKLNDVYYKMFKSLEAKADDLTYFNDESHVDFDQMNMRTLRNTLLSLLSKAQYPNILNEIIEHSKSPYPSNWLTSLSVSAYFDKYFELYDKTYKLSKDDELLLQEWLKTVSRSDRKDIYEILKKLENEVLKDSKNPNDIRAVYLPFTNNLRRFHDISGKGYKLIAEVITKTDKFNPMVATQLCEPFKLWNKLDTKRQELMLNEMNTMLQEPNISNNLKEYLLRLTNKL

[12] = target: T3, Short transient receptor potential channel 4 (Mus musculus, UniProt Q9QUQ5); experiment: mouse TRPC4 channel activators, dose response, cell-based, HEK293 TRPC4/mu-opioid, Fluo-4 calcium (AID 434937); assay type: functional
T3 sequence (Q9QUQ5 whole entry): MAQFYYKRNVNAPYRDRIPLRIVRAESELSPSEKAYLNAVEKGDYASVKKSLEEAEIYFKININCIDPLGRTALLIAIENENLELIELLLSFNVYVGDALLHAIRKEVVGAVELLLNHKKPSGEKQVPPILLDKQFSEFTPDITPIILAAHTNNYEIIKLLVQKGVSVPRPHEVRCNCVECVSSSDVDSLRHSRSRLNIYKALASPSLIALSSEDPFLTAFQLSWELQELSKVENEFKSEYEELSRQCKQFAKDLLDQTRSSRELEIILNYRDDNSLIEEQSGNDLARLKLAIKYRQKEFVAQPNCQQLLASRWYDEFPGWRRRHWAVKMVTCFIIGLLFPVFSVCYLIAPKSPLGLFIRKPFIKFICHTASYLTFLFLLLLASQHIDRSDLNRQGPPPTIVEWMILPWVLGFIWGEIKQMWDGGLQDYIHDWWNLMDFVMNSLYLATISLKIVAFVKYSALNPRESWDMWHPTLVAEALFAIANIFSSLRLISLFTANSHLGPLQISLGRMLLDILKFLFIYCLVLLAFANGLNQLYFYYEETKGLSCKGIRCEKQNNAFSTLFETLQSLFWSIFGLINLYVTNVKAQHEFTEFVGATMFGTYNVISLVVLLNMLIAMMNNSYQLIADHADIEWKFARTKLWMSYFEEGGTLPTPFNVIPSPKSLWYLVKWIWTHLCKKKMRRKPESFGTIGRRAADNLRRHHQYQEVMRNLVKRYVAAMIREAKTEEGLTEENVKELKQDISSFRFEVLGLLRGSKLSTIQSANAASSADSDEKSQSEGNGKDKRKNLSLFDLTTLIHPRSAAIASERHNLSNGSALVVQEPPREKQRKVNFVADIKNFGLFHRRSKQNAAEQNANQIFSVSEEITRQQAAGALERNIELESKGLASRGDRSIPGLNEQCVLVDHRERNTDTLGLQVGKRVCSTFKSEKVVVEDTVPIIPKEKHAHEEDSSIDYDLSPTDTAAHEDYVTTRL

[13] = THP-1 cell cytotoxicity, dose response, cytotoxicity control for non-replicating M. tuberculosis project (AID 489025); assay type: functional
[14] = cytotoxicity in HEK-293T cells, dose response, cytotoxicity control for TCR NF-kB inhibitor project, luminescence, T-cell screen hits (AID 489026); assay type: functional, cell-based;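 also: cells exposed to compound about 14 hours before the viability readout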
[15] = target: T4, Ubiquitin-conjugating enzyme E2 N (Homo sapiens, UniProt P61088); assay type: functional;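 also: Dose-response confirmation in a TR-FRET assay detecting UBC13-driven polyubiquitin chain formation, inhibition measured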
T4 sequence (P61088 whole entry): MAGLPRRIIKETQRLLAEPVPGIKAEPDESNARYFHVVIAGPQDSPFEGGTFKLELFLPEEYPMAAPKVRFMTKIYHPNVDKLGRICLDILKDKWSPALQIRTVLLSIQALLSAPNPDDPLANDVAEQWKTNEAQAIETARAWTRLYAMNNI

[16] = target: T5, Rac GTPase-activating protein 1 (Homo sapiens, UniProt Q9H0H5); experiment: MgcRacGAP GTPase-activating activity inhibitors, confirmation, biochemical, ADP Hunter fluorescence, primary and confirmatory (AID 624330); assay type: functional
T5 sequence (Q9H0H5 whole entry): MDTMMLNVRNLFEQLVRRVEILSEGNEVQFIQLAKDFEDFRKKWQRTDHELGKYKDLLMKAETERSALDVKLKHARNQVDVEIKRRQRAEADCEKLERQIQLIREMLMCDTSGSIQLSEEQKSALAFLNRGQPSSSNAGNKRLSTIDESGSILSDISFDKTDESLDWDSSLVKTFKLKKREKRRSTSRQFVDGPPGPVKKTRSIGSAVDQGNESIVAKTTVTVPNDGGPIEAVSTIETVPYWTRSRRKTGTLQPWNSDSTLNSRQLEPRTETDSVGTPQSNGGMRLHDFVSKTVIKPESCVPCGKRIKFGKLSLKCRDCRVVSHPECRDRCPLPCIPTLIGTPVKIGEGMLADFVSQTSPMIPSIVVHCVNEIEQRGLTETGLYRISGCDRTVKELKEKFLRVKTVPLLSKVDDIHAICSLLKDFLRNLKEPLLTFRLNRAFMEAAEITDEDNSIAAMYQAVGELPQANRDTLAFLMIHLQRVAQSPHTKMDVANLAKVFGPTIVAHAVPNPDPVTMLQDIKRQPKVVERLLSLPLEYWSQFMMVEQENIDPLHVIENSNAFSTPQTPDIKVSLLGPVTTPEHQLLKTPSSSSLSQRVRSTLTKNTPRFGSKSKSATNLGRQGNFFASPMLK

[17] = Luminescence Cell-Based Dose Retest to Confirm Inhibitors of Cancer Stem Cells. [Related pubchem assays (depositor defined):AID2717, AID2721]; assay type: functional; settings: Homo sapiens

Large T antigen, sequence (P03070 whole entry): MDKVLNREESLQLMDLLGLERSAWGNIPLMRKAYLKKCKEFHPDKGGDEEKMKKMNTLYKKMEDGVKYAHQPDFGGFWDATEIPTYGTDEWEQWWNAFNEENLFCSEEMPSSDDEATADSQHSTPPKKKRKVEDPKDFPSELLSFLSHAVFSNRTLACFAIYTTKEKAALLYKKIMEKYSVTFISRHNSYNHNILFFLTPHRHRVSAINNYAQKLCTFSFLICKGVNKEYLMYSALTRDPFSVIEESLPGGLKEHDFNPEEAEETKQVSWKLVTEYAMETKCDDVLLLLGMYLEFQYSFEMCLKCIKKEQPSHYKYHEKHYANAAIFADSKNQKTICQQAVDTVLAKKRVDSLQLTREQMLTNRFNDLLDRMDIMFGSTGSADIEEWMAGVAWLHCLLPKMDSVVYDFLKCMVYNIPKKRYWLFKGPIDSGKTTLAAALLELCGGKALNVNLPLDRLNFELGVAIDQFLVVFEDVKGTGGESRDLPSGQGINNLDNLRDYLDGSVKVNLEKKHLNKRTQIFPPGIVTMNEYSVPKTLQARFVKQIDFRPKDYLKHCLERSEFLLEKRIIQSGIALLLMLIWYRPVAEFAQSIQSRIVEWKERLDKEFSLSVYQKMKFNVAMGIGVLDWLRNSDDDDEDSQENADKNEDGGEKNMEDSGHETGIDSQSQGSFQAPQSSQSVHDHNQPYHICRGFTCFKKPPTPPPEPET

Oc1ccc(-c2n[nH]c(=S)[nH]2)cc1
IC50 [1]: 6.95 µM (active) | IC50 [2]: > 100 µM (inactive) | IC50 [3]: 20.6 µM (active) | IC50 [4]: 4.02 µM (active)

Cc1cccc(C)c1NC(=O)COC(=O)c1ccc([N+](=O)[O-])o1
AC50 [5]: 2.57 µM (active)

Cc1ccc(C)c(-c2nnc(NC(=O)C3=COCCO3)o2)c1
CC50 [6]: 19 µM (active) | CC50 [7]: > 40 µM (active) | IC50 [8]: 6.12 µM (active)

CN(C)c1ccc(C=C2C(=O)NC(=O)NC2=O)cc1[N+](=O)[O-]
IC50 [9]: 16.3 µM (active)

Cn1c(S)nnc1-c1cc2c(C(F)(F)F)nn(C)c2s1
IC50 [2]: > 100 µM (inactive) | IC50 [4]: 1.84 µM (active)

c1nc(NCCN2CCOCC2)c2sc3nc(N4CCOCC4)c4c(c3c2n1)CCC4
EC50 [10]: 3.34 µM (active)

Cc1ccc2c(c1)c1nnc(SCC(=O)N3CCCc4ccccc43)nc1n2CC(=O)O
IC50 [11]: 26.8 µM (active)

O=C(c1sc2ccccc2c1Cl)N(Cc1cccs1)C1CCS(=O)(=O)C1 (centres undefined)
EC50 [12]: 1.88 µM (active)

O=C(NCc1cccs1)C1CCN(S(=O)(=O)c2cccs2)CC1
IC50 [11]: 51.9 µM (active)

CCOC(=O)c1sc2nc(CSc3ccccc3)nc(NCCN(C)C)c2c1C
CC50 [6]: 17.8 µM (active) | CC50 [13]: 31.2 µM (active) | IC50 [8]: 22.5 µM (active)

C/C=C(\C)C(=O)N[C@@H](c1ccccc1)[C@@H](O)C(=O)O[C@H]1C[C@@]2(O)[C@@H](OC(=O)c3ccccc3)C3[C@](C)(C(=O)[C@H](O)C(=C1C)C2(C)C)[C@@H](O)C[C@H]1OC[C@@]31OC(C)=O (some centres undefined)
IC50 [14]: > 80 µM (inactive)

O=C(Nc1ccccc1)c1ccccc1CCc1ccccc1
EC50 [10]: 1.7 µM (active)

CSc1ccc(CNC(=O)c2ccc(NC(=O)C3=CSCCO3)cc2)cc1
EC50 [10]: 0.0482 µM (active)

COC(=O)c1[nH]c2ccc(F)cc2c1NS(=O)(=O)c1ccc(OC)cc1
IC50 [14]: > 80 µM (inactive)

O=C(OCc1cccc([N+](=O)[O-])c1)c1cccnc1Cl
IC50 [15]: > 20 µM (inactive)

COC(=O)NCC(c1ccc2c(c1)OCO2)N1CCN(c2ccc(OC)cc2)CC1 (centres undefined)
IC50 [16]: 123 µM (active) | EC50 [12]: 0.944 µM (active)

CCc1ccc2nc(SCC(=O)Nc3ccccc3N3CCOCC3)c(C#N)cc2c1
IC50 [14]: > 80 µM (inactive) | AC50 [17]: 2.39 µM (active)

Cn1cncc1C#Cc1c(-c2ccsc2)sc2ccccc12
AC50 [5]: 7.16 µM (active) | AC50 [17]: 4.68 µM (active)

CC[C@@H](C)[C@@H]1CN([C@@H](C)CN2CCC[C@H]2CN2C(N)=NC[C@@H]2Cc2ccccc2)C(=N)N1CCCC1CCCC1
IC50 [15]: > 20 µM (inactive)

CN(C)c1ccc(/C=N/n2c(S)nnc2-c2cccnc2)cc1
IC50 [2]: > 100 µM (inactive) | IC50 [4]: 2.56 µM (active)

Cc1ccsc1/C=N/n1c(S)nnc1-c1ccncc1
IC50 [2]: > 100 µM (inactive) | IC50 [4]: 2.45 µM (active)
